In US8889881B2, “Compound having skin-whitening, anti-oxidizing and PPAR activities and medical use therefor” (Pusan National University Industry —University Cooperation …, priority 2011, dated 2014):

Assays:
[1] = tested on: Mushroom-derived tyrosinase; experiment: Tyrosinase inhibitory effect; type: biochemical; settings: 1 mM L-tyrosin, pH 6.5, 25° C., 30 minutes, OD492; positive control kojic acid; FIGS. 3 and 4
Protocol: Mushroom-derived tyrosinase was sued as an enzyme source in the present experiment. Tyrosinase activities were assayed according to a slightly-modified conventionally known method (Life Sci., 1999, 65, 241-246). In detail, 20 μl of a mushroom-derived tyrosinase (1000 units) aqueous solution was added to 96-well microplate (Nunc, Denmark) to prepare 200 μl of the total volume of assay mixture containing 1 mM L-tyrosin solution and 50 mM phosphate buffer solution (pH 6.5). The assay mixture was cultured at a temperature of 25° C. for 30 minutes.

PPAR gamma-LBD = target: T1, PPAR gamma-LBD (Homo sapiens, UniProt P37231); experiment: PPAR assay, PPARγ; type: binding; settings: sample final concentration 100 μM; positive control rosiglitazone; FIGS. 7 and 8
T1 sequence (P37231 238-503 limits assumed): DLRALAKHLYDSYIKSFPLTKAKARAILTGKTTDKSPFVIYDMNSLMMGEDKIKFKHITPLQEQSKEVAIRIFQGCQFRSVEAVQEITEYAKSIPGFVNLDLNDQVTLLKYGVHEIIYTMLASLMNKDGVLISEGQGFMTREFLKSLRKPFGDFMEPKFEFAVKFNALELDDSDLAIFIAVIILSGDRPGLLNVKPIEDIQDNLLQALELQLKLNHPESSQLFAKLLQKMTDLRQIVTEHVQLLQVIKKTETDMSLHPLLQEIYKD

PPAR alpha-LBD = target: T2, PPAR alpha-LBD (Homo sapiens, UniProt Q07869); experiment: PPAR assay, PPARα; settings: for PPARα activation (competitive activation rate), compared with fenofibrate: sample final concentration 100 μM, positive control fenofibrate, FIGS. 5 and 6; for simultaneous activation of PPARα and PPARγ: summary of the PPARα and PPARγ assays, sample 100 μM
T2 sequence (Q07869 239-466 limits assumed): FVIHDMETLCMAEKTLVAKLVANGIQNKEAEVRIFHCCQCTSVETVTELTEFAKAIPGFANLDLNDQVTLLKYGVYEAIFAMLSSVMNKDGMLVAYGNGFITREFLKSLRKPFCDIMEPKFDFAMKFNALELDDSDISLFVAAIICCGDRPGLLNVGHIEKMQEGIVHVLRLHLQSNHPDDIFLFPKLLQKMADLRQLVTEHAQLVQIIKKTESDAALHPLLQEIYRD

[2] = tested on: YPEN-1 cells (rat prostatic endothelial cell line); experiment: In vitro ROS scavenging activity assay (DCFDA); type: cell-based; settings: cells pre-treated with 50 μM SIN-1 for 1 hour; DCFDA fluorescence; positive control trolox; FIGS. 1 and 2
Protocol: YPEN-1 cells (rat prostatic endothelial cell line) was obtained from American type culture collection (ATCC, Manassas, Va., USA), and the cells were cultured by using a dulbecco's modified eagle medium (DMEM, Nissui, Tokyo, Japan) containing 2 mM L-glutamine, […], 2.5 mg/L amphotericin B, and 5% inactivated fetal bovine serum (FBS). Also, the cells were maintained at a temperature of 37° C. in a humid atmosphere-like condition containing 5% CO2 and 95% air. […] The cells were sub-cultured in 100 mm plastic flask (Corning Co., New York, USA) every two days to maintain the cell line.
2′,7′-dichlorodihydrofluorescein diacetate (DCFDA) assay method according to a conventionally known method (Chem Res Toxicol. 5: 227-231, 1992) was used. In detail, 12.5 mM DCFDA dissolved in 99.9% ethanol and 600 U/ml esterase dissolved in tertiary distilled water were stored as a stock solution at a temperature of −20° C., and a 2′,7′-dichlorodihydrofluorescein (DCFH) solution prepared by mixing 10 mM DCFDA and 6 U/ml esterase was cultured at a temperature of 22° C. for 20 minutes, and then, refrigerated in a dark place before use. […] Vascular endothelial cells that were pre-treated with 50 μM 3-morpholinosydnonimine hydrochloride (SIN-1) for 1 hour were used as a reactive oxygen generation source.

SMILES	simultaneous activation of PPARα and PPARγ (PPAR alpha-LBD)	melting point	tyrosinase inhibitory activities, compared with kojic acid [1]	PPARγ activation (competitive activation rate), compared with rosiglitazone (PPAR gamma-LBD)	PPARα activation (competitive activation rate), compared with fenofibrate (PPAR alpha-LBD)	scavenging effects on ROS generated by vascular endothelial cells, compared with trolox [2]
Oc1ccc(-c2nc3ccccc3[nH]2)c(O)c1 [Compound 45, 4-(1H-benzo[d]imidazol-2-yl)benzene-1,3-diol]	simultaneously activates PPARα and PPARγ		better tyrosinase inhibitory activities than a kojic acid	very excellent PPARγ activation agent compared to rosiglitazone	very excellent PPARα activation agent compared to fenofibrate	
Oc1ccc(-c2nc3cc(Cl)ccc3s2)cc1O [Compound 83, 4-(5-chlorobenzo[d]thiazol-2-yl)benzene-1,2-diol]		127.4 to 129.1 °C	better tyrosinase inhibitory activities than a kojic acid			as high scavenging effects on ROS generated by vascular endothelial cells as trolox
CC(C)(Oc1ccc(-c2nc3cc(Cl)ccc3s2)cc1)C(=O)O [Compound 99, 2-(4-(5-chlorobenzo[d]thiazol-2-yl)phenoxy)-2-methylpropanoic acid]	simultaneously activates PPARα and PPARγ		better tyrosinase inhibitory activities than a kojic acid	very excellent PPARγ activation agent compared to rosiglitazone	very excellent PPARα activation agent compared to fenofibrate	

Further lines, with some results ahead:

simultaneous activation of PPARα and PPARγ (PPAR alpha-LBD)	melting point	SMILES	tyrosinase inhibitory activities, compared with kojic acid [1]	PPARγ activation (competitive activation rate), compared with rosiglitazone (PPAR gamma-LBD)	PPARα activation (competitive activation rate), compared with fenofibrate (PPAR alpha-LBD)	scavenging effects on ROS generated by vascular endothelial cells, compared with trolox [2]
simultaneously activates PPARα and PPARγ		COc1cc(-c2nc3ccccc3[nH]2)cc(OC)c1O [Compound 55, 4-(1H-benzo[d]imidazol-2-yl)-2,6-dimethoxyphenol]	better tyrosinase inhibitory activities than a kojic acid	very excellent PPARγ activation agent compared to rosiglitazone	very excellent PPARα activation agent compared to fenofibrate	
simultaneously activates PPARα and PPARγ	155.8 to 158.6 °C	COc1cc(C2Nc3cc(Cl)ccc3S2)cc(OC)c1O (stereo not drawn) [Compound 94, 4-(5-chloro-2,3-dihydrobenzo[d]thiazol-2-yl)-2,6-dimethoxyphenol]	better tyrosinase inhibitory activities than a kojic acid	very excellent PPARγ activation agent compared to rosiglitazone	very excellent PPARα activation agent compared to fenofibrate	as high scavenging effects on ROS generated by vascular endothelial cells as trolox
